Test [1] has as its system Staphylococcus aureus. Kind of test: Antibacterial activity against Staphylococcus aureus. Type of test: functional.
For test [2], the system named is Escherichia coli. As to the kind of experiment: Antibacterial activity against Escherichia coli. The test is classed as functional.
For test [3], the system named is Escherichia coli. As to the kind of experiment: Antibacterial activity against Escherichia coli assessed as inhibition zone incubated for 24 hrs by disk diffusion method relative to control. The test is classed as functional.
Another test has as its system A549. As to the kind of experiment: Cytotoxicity against human A549 cells assessed as reduction in cell viability incubated for 48 hrs by SRB method. The test is classed as functional. As to conditions: A549, 48 h, read-out: ED50 (the source's name). (In general: In SRB staining, fixed cells bind dye roughly in proportion to their protein.)
The subject of another test is NIH3T3. Kind of test: Cytotoxicity against mouse NIH/3T3 cells assessed as reduction in cell viability incubated for 48 hrs by SRB method. Particulars: NIH3T3, 48 h, read-out: ED50 (the source's name). Type of test: functional.
The next test concerns SK-OV-3. Kind of test: Cytotoxicity against human SKOV3 cells assessed as reduction in cell viability incubated for 48 hrs by SRB method. As to conditions: SK-OV-3, 48 h, read-out: ED50 (the source's name). Type of test: functional.
The subject of test [4] is Aspergillus fumigatus. Kind of test: Antifungal activity against Aspergillus fumigatus assessed as reduction in fungal cell viability measured after 24 and 48 hrs by broth microdilution method. The test is classed as functional. (In general: Broth dilution looks for growth in wells or tubes with falling amounts of substance.)
Test [5] has as its target Prostaglandin G/H synthase 2 (Homo sapiens, UniProt P35354). As to the kind of experiment: Inhibition of recombinant human COX2 expressed in baculovirus infected Sf9 cells.
The subject of test [6] is Rattus norvegicus. Kind of test: Antiinflammatory activity in po dosed rat. The test is classed as functional.
The test system of test [7] is Rattus norvegicus. Kind of test: Antiinflammatory activity in Wistar rat assessed as inhibition of carrageenan-induced edema measured upto 4 hrs. Type of test: functional. On the technique in general: In the carrageenan paw model, swelling and tenderness develop within hours.
The subject of the next test is Salmonella typhimurium. Kind of test: Inhibition of biofilm formation in Salmonella enterica subsp. enterica serovar Typhimurium 14028S incubated for 48 hrs by crystal violet staining based assay. The test is classed as functional, organism-based.
The target in test [8] is GABA-A receptor; alpha-1/beta-2/gamma-2 (Homo sapiens) (UniProt P14867+P47870+P18507). Kind of test: Positive allosteric modulation of recombinant GABAA alpha1beta2gamma2 (unknown origin) expressed in Xenopus laevis oocytes assessed as increase GABA-stimulated current amplitude at 200 uM by electrophysiological two-electrode voltage clamp method. The test is classed as cell-based.

Test [9] is filed under the species Rattus norvegicus. As to the kind of experiment: Antiarthritic activity in adjuvant-induced Sprague-Dawley rat. The test is classed as functional.
Test [10] relates to Rattus norvegicus. As to the kind of experiment: Antiinflammatory activity in Wistar albino rat assessed as inhibition of carrageenan-induced paw edema at 20 mg/kg , po incubated for 30 mins followed by carrageenan addition and measured after 3 hrs by plethysmometry relative to control. The test is classed as functional.
Test [11] relates to Mus musculus. Kind of test: Analgesic activity in Swiss albino mouse assessed as inhibition of acetic acid induced writhing at 20 mg/kg , po incubated for 3 hrs followed by acetic acid administered and observed for 5 to 15 mins relative to control. The test is classed as functional.
The next test concerns Rhizopus arrhizus. Kind of test: Antifungal activity against Rhizopus oryzae assessed as reduction in fungal cell viability incubated for 48 hrs by broth microdilution method. The test is classed as functional.
For test [12], the system named is Staphylococcus aureus. Kind of test: Antibacterial activity against Staphylococcus aureus ATCC 29737 assessed as reduction in bacterial cell viability incubated for 24 hrs by broth microdilution method. The test is classed as functional. Particulars: ATCC 29737, 24 h.
Test [13] has as its system Escherichia coli. As to the kind of experiment: Antibacterial activity against Escherichia coli ATCC 8739 assessed as reduction in bacterial cell viability incubated for 24 hrs by broth microdilution method. The test is classed as functional. Particulars: ATCC 8739, 24 h.
The subject of another test is Pseudomonas aeruginosa. As to the kind of experiment: Antibacterial activity against Pseudomonas aeruginosa NCLM-2035 assessed as reduction in bacterial cell viability incubated for 24 hrs by broth microdilution method. Type of test: functional. As to conditions: NCLM-2035, 24 h.
Another test deals with Aspergillus niger. As to the kind of experiment: Antifungal activity against Aspergillus niger assessed as reduction in fungal cell viability incubated for 48 hrs by broth microdilution method. Type of test: functional.
For test [14], the system named is Candida albicans. As to the kind of experiment: Antifungal activity against Candida albicans assessed as reduction in fungal cell viability incubated for 48 hrs by broth microdilution method. The test is classed as functional.
For another test, the system named is Liver. Kind of test: Antioxidant activity in Wistar rat liver microsomes assessed as inhibition of AAPH-induced MDA production at 100 mM incubated for 15 mins. The test is classed as functional. As to conditions: Microsome.
Test [15] relates to Mus musculus. As to the kind of experiment: Anticonvulsant activity in ip dosed mouse assessed as reduction in PTZ-induced seizures pretreated for 30 mins followed by PTZ addition. Type of test: functional.
A further test has as its system Plasmodium falciparum. As to the kind of experiment: Antimalarial activity against Plasmodium falciparum infected in human blood assessed as reduction in cell viability incubated for 72 hrs by Giemsa stain based assay. The test is classed as functional.
Test [16] relates to Aspergillus fumigatus. Kind of test: Antifungal activity against Aspergillus fumigatus assessed as reduction in fungal cell viability by broth dilution method. Type of test: functional.
For a further test, the system named is Lichtheimia corymbifera. Kind of test: Antifungal activity against Absidia corymbifera assessed as reduction in fungal cell viability by broth dilution method. Type of test: functional.
Test [17] relates to Mycobacterium tuberculosis. Kind of test: Antimycobacterial activity against Mycobacterium tuberculosis H37Rv. The test is classed as functional, organism-based.
The test system of test [18] is Candida albicans. Kind of test: Antifungal activity against Candida albicans ATCC 90028 assessed as reduction in fungal cell viability measured after 24 and 48 hrs by spectrophotometry. The test is classed as functional.

Each structure is given as a SMILES string. In brackets after ≈: the same amount, converted by molar mass.

Prostaglandin G/H synthase 2, sequence (P35354 whole entry): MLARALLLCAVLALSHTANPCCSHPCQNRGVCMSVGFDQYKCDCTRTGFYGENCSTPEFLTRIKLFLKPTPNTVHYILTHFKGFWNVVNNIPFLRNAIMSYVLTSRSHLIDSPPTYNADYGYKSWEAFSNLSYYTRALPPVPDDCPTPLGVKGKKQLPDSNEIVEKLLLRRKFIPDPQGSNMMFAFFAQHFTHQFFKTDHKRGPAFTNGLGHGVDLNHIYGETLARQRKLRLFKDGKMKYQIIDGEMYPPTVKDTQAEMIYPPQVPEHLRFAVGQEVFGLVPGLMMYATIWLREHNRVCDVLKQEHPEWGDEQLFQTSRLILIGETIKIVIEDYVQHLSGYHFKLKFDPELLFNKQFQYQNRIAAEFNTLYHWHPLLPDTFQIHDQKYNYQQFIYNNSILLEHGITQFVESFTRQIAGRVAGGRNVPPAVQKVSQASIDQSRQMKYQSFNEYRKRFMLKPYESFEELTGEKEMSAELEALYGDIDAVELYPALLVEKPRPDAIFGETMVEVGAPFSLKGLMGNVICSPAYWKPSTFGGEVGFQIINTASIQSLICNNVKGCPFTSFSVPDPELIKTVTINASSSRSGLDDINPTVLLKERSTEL

What is called MIC is the smallest concentration in the dilution series that meets the test's criterion for growth inhibition. As for `COC(=O)C(Cl)C1(Cl)OC(c2ccc(Cl)cc2)=C(Cl)C1=O` (stereo not drawn), the MIC against Staphylococcus aureus [1] was found to be 15.6 µg/mL (≈ 42.2 µM); against Escherichia coli [2], 62.5 µg/mL (≈ 169 µM).

For `CC1COc2c(N3CCN(C)CC3)c(F)cc3c(=O)c(C(=O)O)cn1c23` (stereo not drawn) [OFLOXACIN], the “inhibition zone (IZ)” value in the test with Escherichia coli [3] was found to be 24 mm.

As for `O=C1C=C/C(=C\c2cccc([N+](=O)[O-])c2)O1`, the EC50 in the test on A549, with NIH3T3 and with SK-OV-3 was 5.9 to 21 µg/mL (≈ 27.2 to 96.7 µM) in each case.

On to `CC(C)(C)C(=O)OCC1C=C(c2ccc(Cl)c(Cl)c2)C(=O)O1` (stereo not drawn), for which the MIC in the test on Aspergillus fumigatus [4] was 1.34 µg/mL (≈ 3.9 µM).

The IC50 is the concentration that inhibits the measured activity by half. Turning to `CS(=O)(=O)c1ccc(C2=C3c4ccccc4CCC3OC2=O)cc1` (stereo not drawn), the IC50 in [5] is 0.5 to 0.6 µM.

In general, ED50 refers to the dose at which the effect has come halfway, by size or by number of responders. Consider `CC1(O)OC(=O)C(c2ccc(Cl)cc2)=C1c1ccc(S(C)(=O)=O)cc1` (stereo not drawn), for which it took a dose of 1.4 mg/kg to reach the 50% effect level in the test with Rattus norvegicus [6] (ED50).

On to `COc1cc(/C=C2\C=CC(=O)O2)c(OC)c2c1C(=O)c1ccccc1C2=O`, for which the EC50 with A549, in the test on NIH3T3 and with SK-OV-3 was 9.2 to 16.5 µg/mL (≈ 25.4 to 45.5 µM) in each case.

Consider `Cc1ccc2cc(/C=C3\C=C(c4ccc(-c5ccccc5)cc4)OC3=O)c(Cl)nc2c1`, for which the “inhibition (INH)” value in the test with Rattus norvegicus [7] is given as 56 - 63%.

The compound `CCC1=C(Br)/C(=C/Br)OC1=O` gave an IC50 in the test on Salmonella typhimurium of 50 µM.

With `C[C@@H]1[C@H](O)[C@@H](C)/C=C/C=C/C=C/C=C/C=C/C=C/C=C/[C@H](O[C@@H]2O[C@H](C)[C@@H](O)[C@H](N)[C@@H]2O)C[C@@H]2O[C@](O)(C[C@@H](O)C[C@@H](O)[C@H](O)CC[C@@H](O)C[C@@H](O)CC(=O)O[C@H]1C)C[C@H](O)[C@H]2C(=O)O` [AMPHOTERICIN B], the MIC in the test with Aspergillus fumigatus [4] stood at 0.5 µg/mL (≈ 0.541 µM).

Take `C=CCOC(=O)NC1COC(=O)C1(CCC)CCC` (stereo not drawn): the Activity in [8] was found to be 420%.

Regarding `Cc1ccc(-c2cc(C(F)(F)F)nn2-c2ccc(S(N)(=O)=O)cc2)cc1` [CELECOXIB], the median effective dose (ED50) in the test filed under Rattus norvegicus [9] was 0.2 mg/kg/day.

For the compound `CC1(O)OC(=O)C(c2ccccc2)=C1c1ccc(S(C)(=O)=O)cc1` (stereo not drawn), the ED50 with Rattus norvegicus [6] came to 1.5 mg/kg.

What is called inhibition in vivo is how much of the control response was suppressed. As to `O=C1OC(c2ccc3ccccc3c2)=C/C1=C\c1ccccc1[N+](=O)[O-]`, the inhibition in vivo at 20 mg/kg with Rattus norvegicus [10] lay within 74.8 to 89.7%; with Mus musculus [11] it was 70 to 74%.

For `O=C1C=C(c2ccc(Br)cc2)O/C1=N\C12CC3CC(CC(C3)C1)C2`, the MIC in the test with Escherichia coli [2] came to 31 µg/mL (≈ 80.3 µM).

Compound `O=C1C=C/C(=C/Br)O1` came in with an IC50 in the test on Salmonella typhimurium of 15 µM.

For the compound `O=C1OC(c2ccc(Cl)cc2)=C/C1=C\c1ccc(Br)cc1`, the MIC in the test with Rhizopus arrhizus, in the test on Staphylococcus aureus [12], with Escherichia coli [13], in the test with Pseudomonas aeruginosa, in the test with Aspergillus niger and in the test on Candida albicans [14] was 12.5 to 50 µg/mL (≈ 34.6 to 138 µM) throughout.

Usually inhibition stands for the relative decrease from the control value, in per cent. In the case of `Cc1c(C)c2c(c(C)c1O)CCC(C)(CC1OC[C@@H]([C@H]3OC(=O)C(O)=C3O)O1)O2` (stereo partly drawn), the inhibition in the test with Liver turned out to be 100%.

Take `O=C1OC(c2ccc(Cl)cc2)=C/C1=C\c1ccc(F)cc1`: the MIC in the test with Rhizopus arrhizus, in the test on Staphylococcus aureus [12], in the test on Escherichia coli [13], in the test on Pseudomonas aeruginosa, in the test with Aspergillus niger and with Candida albicans [14] was 12.5 to 50 µg/mL (≈ 41.6 to 166 µM) each time.

Turning to `COc1ccc(C2=C/C(=C/c3ccc(N(C)C)cc3)C(=O)O2)cc1`, the “inhibition zone (IZ)” value in the test with Escherichia coli [3] was 16 mm.

`CCC1(CC)CC(CCOC(=O)c2ccc(C)cc2)OC1=O` (stereo not drawn): the 50% effective dose (ED50) in the test on Mus musculus [15] fell in the range of 89.9 to 285 mg/kg.

As for `COc1cccc2cc(/C=C3/CC(c4ccc(Cl)c(Cl)c4)OC3=O)c(Cl)nc12` (stereo not drawn), the MIC with Plasmodium falciparum was 0.5 to 0.72 µg/mL (≈ 1.15 to 1.66 µM).

As for `COc1ccc(C2=C/C(=C/c3ccc(F)cc3)C(=O)O2)cc1`, the “inhibition zone (IZ)” value in the test with Escherichia coli [3] was 14 mm.

For `COc1ccc(/C=C2\C=C(c3ccc4ccccc4c3)OC2=O)cc1`, the values for the inhibition in vivo at 20 mg/kg in the test with Rattus norvegicus [10] and in the test with Mus musculus [11] were 74.8 to 89.7% and 70 to 74%, respectively.

As for `CC(=O)N1CCN(c2ccc(OCC3COC(Cn4ccnc4)(c4ccc(Cl)cc4Cl)O3)cc2)CC1` (stereo not drawn) [KETOCONAZOLE], the MIC in the test with Aspergillus fumigatus [16] and in the test on Lichtheimia corymbifera was 16.6 µg/mL (≈ 31.2 µM) each time.

As to `Cc1ccc2cc(/C=C3\C=C(c4ccc5ccccc5c4)OC3=O)c(Cl)nc2c1`, in the test on Rattus norvegicus [7], the “inhibition (INH)” value was 56 - 63%.

Take `O=C1C(Br)=C(c2ccccc2)O/C1=N\C12CC3CC(CC(C3)C1)C2`: inhibition of growth against Escherichia coli [2] (MIC) required 15.6 µg/mL (≈ 40.4 µM).

By IC90 is commonly meant the point of the concentration-response curve where the effect stands at 90%. As to `COc1cc(/C=C2\C=C(c3cccc(Br)c3)OC2=O)ccc1OC(C)=O`, in [17], the 50% inhibitory concentration (IC50) amounted to 5.05 µg/mL (≈ 12.2 µM) and the IC90 amounted to 7.85 µg/mL (≈ 18.9 µM).

As to `CC(=O)OCC1C=C(c2cccc(Cl)c2)C(=O)O1` (stereo not drawn), in the test on Candida albicans [18], the minimum inhibitory concentration (MIC) was 1 µg/mL (≈ 3.75 µM).

(Values after ChEMBL document CHEMBL4393659, “Insights into the chemistry and therapeutic potential of furanones: A versatile pharmacophore” (Eur J Med Chem, 2019).)
